Laboratory results reported in ChEMBL document CHEMBL5226351, “Sycosterol A, an α-Synuclein Inhibitory Sterol from the Australian Ascidian Sycozoa cerebriformis” (J Nat Prod, 2021).
The source made the active and inactive calls. No cut-off for these calls is given here.

What was measured:
[1] = target: Alpha-synuclein (Homo sapiens) (UniProt P37840); assay: Binding affinity to human alpha-Synuclein at compound to protein molar ratio of 5:1 incubated for 3 hrs by mass spectroscopy analysis
[2] = target: Alpha-synuclein (Homo sapiens) (UniProt P37840); assay: Inhibition of human alpha-Synuclein aggregation at compound:protein ratio of 1:5 incubated for 72 hrs under shaking condition by Thioflavin T based fluorimeter assay relative to control; conditions: concentration not given here
[3] = target: Alpha-synuclein (Homo sapiens) (UniProt P37840); assay: Inhibition of human alpha-Synuclein aggregation at 400 uM incubated for 72 hrs under shaking condition by Thioflavin T based fluorimeter assay relative to control

Structure (SMILES) | Activity [1] | inhibition [2] | inhibition [3]
O=C(O[C@@H]1Cc2c(O)cc(O)cc2O[C@@H]1c1cc(O)c(O)c(O)c1)c1cc(O)c(O)c(O)c1 | Active | 93.6% | 
CC(CCC[C@@H](C)[C@H]1[C@H](O)[C@@H](O)[C@@H]2[C@]1(C)CC[C@@H]1[C@@]3(C)CC[C@@H](O)C[C@@H]3C[C@@H](O)[C@]12O)COS(=O)(=O)O (some centres undefined) | Active |  | 46.2%
